# Experimental data as given in article PMC6290023 (Scientific Reports, 2018).
# Square brackets hold non-standard residues; d marks the D form. Peptide text beside a SMILES is read from it.
# What was measured:
# [1] = tested on: LPS-stimulated MG6 cells; experiment: Anti-inflammatory effect in LPS-stimulated MG6 cells (TNF-α / IL-6 ELISA); type: cell-based, mouse; settings: LPS-stimulated MG6 cells; for inhibition of IL-6 expression compared with MHP1 / inhibition of TNF-α expression compared with MHP1: medium harvested 24 h after stimulation; for effect on expression of TNF-α: vs LPS-stimulated cells without treatment
# Method: MG6 cells were obtained from RIKEN BRC (Tsukuba, Japan)[25],[26]. The MG6 cells were maintained in DMEM (Nakarai, Kyoto, Japan) supplemented with 10% FBS (Thermo Fisher Scientific, Waltham, MA, USA), 10 μg/ml insulin (Sigma-Aldrich, St. Louis, MO, USA) and 100 μM 2-mercaptoethanol (Sigma-Aldrich). These cells (1 × 10^5 cells) were plated in 96-well plastic culture dishes. After overnight incubation, the medium was replaced with DMEM supplemented with 4% FBS. LPS (Escherichia coli 0111: B4; Sigma-Aldrich, St. Louis, MO, USA) and MHP1 or modified MHP1 was added to the medium, which was then harvested at 24 h after stimulation. In the experiment checking the stability at 26 or 37 °C, MHP1-Ac or MHP1-AcN was incubated at 26 or 37 °C for 24 h before adding to the medium.
# The concentrations of TNF-α and IL-6 were measured using commercially available ELISA kits: TNF-α, Quantikine Mouse TNF-α ELISA Kit (R&D systems); IL-6, Quantikine Mouse IL-6 ELISA Kit (R&D systems).
# [2] = Mouse (CD-1(ICR)) serum; settings: 37 °C, up to 60 min
# [3] = tested on: LPS-stimulated MG6 cells; experiment: LDH assay in LPS-stimulated MG6 cells; type: cell-based, mouse
# [4] = Pharmacokinetics after intravenous injection 4 h after tMCAo (LC/MS/MS); type: in vivo; settings: mouse, i.v. 2 mg/ml, 10 ml/kg in 0.45% saline
# Method: MHP1-Ac or MHP1-AcN (2 mg/ml, 10 ml/kg in 0.45% saline) was administered intravenously 4 hrs after tMCAo and mouse plasma was collected at 5 min, 10 min, 20 min, 30 min, 45 min, 1 h, and 2 h after injection. Mouse plasma (C57BL6J, 10 µL) and water/phosphoric acid (24:1, v/v) (Solution B, 500 µL) were mixed together to prepare the plasma samples. The samples (510 µL) were then analyzed using LC/MS/MS to determine MHP1-Ac or MHP1-AcN in plasma. Mouse brain was weighed and mixed with a 4-fold volume of solution B and the mixture was homogenized to prepare the brain samples. The specific gravity of solution B was assumed to be 1. The brain samples (10 µL) were analyzed using LC/MS/MS to determine MHP1-Ac or MHP1-AcN in brain. MHP1-Ac and MHP1-AcN, and MHP1-N (internal standard), in the plasma samples and brain samples, were extracted using Oasis HLB μElution Plate (Waters). Chromatographic analysis was performed on an InertSustain C18 (2.1 mm I.D. ×50 mm, 3 µm, GL Sciences) column using the mobile phase A, water/formic acid (1000:1, v/v), and the mobile phase B, acetonitrile/formic acid (1000:1, v/v).
# [5] = Dissolution in water and sedimentation in 0.45% saline at 37 °C for 24 h; type: physicochemical
# Method: Synthetic MHP1 (NH2-[…]-COOH), MHP1-DN1 (NH2-LMVYVV-DLys-[…]-COOH), MHP1-DN2 (NH2-LMV-DTyr-[…]-COOH), MHP1-DN3 (NH2-L-DMet-[…]-COOH), MHP1-DC (NH2-LMVYVVKTSIKIPSSHNL-DMet-KGGSTKNWSGN-COOH), MHP1-Ac (Ac-[…]-COOH), MHP1-AcN (Ac-[…]-HN2), or MHP1-N (NH2-[…]-NH2) was purchased from ILS, Inc (Ibaraki, Tsukuba, Japan), dissolved in 1 or 2 mg/ml ddH2O and stored at 4 °C until use (Table 1).
Compound,inhibition of IL-6 expression compared with MHP1 ([1]; ELISA),inhibition of TNF-α expression compared with MHP1 ([1]; ELISA),"anti-inflammatory effects ([1]; 24 h, ELISA)","effect on expression of TNF-α ([1]; 24 h, ELISA)",further results
CC[C@H](C)[C@H](NC(=O)[C@H](CO)NC(=O)[C@@H](NC(=O)[C@H](CCCCN)NC(=O)[C@@H](NC(=O)[C@@H](NC(=O)[C@H](Cc1ccc(O)cc1)NC(=O)[C@@H](NC(=O)[C@H](CCSC)NC(=O)[C@@H](N)CC(C)C)C(C)C)C(C)C)C(C)C)[C@@H](C)O)C(=O)N[C@@H](CCCCN)C(=O)N[C@H](C(=O)N1CCC[C@H]1C(=O)N[C@@H](CO)C(=O)N[C@@H](CO)C(=O)N[C@@H](Cc1c[nH]cn1)C(=O)N[C@@H](CC(N)=O)C(=O)N[C@@H](CC(C)C)C(=O)N[C@H](CCSC)C(=O)N[C@@H](CCCCN)C(=O)NCC(=O)NCC(=O)N[C@@H](CO)C(=O)N[C@H](C(=O)N[C@@H](CCCCN)C(=O)N[C@@H](CC(N)=O)C(=O)N[C@@H](Cc1c[nH]c2ccccc12)C(=O)N[C@@H](CO)C(=O)NCC(=O)N[C@@H](CC(N)=O)C(=O)O)[C@@H](C)O)[C@@H](C)CC [MHP1-DC] (H-LMVYVVKTSIKIPSSHNL[dM]KGGSTKNWSGN-OH),not replicated,more effective than MHP1,,,
LMVYVVKTSIKIPSSHNLMKGGSTKNWSGN,,,,,"cleaved bond [2]: L-M2 and M2-V and V-Y4 and Y4-V, major and K7-T, major and Met19-K; fragment found [2]: LMVYVVKTSIKIPSSHNLMKGGSTKNWSGN-Oxygen"
CC[C@H](C)[C@H](NC(=O)[C@H](CO)NC(=O)[C@@H](NC(=O)[C@H](CCCCN)NC(=O)[C@@H](NC(=O)[C@@H](NC(=O)[C@H](Cc1ccc(O)cc1)NC(=O)[C@@H](NC(=O)[C@H](CCSC)NC(=O)[C@@H](N)CC(C)C)C(C)C)C(C)C)C(C)C)[C@@H](C)O)C(=O)N[C@@H](CCCCN)C(=O)N[C@H](C(=O)N1CCC[C@H]1C(=O)N[C@@H](CO)C(=O)N[C@@H](CO)C(=O)N[C@@H](Cc1c[nH]cn1)C(=O)N[C@@H](CC(N)=O)C(=O)N[C@@H](CC(C)C)C(=O)N[C@@H](CCSC)C(=O)N[C@@H](CCCCN)C(=O)NCC(=O)NCC(=O)N[C@@H](CO)C(=O)N[C@H](C(=O)N[C@@H](CCCCN)C(=O)N[C@@H](CC(N)=O)C(=O)N[C@@H](Cc1c[nH]c2ccccc12)C(=O)N[C@@H](CO)C(=O)NCC(=O)N[C@@H](CC(N)=O)C(N)=O)[C@@H](C)O)[C@@H](C)CC [MHP1-N] (H-LMVYVVKTSIKIPSSHNLMKGGSTKNWSGN-NH2),not replicated,more effective than MHP1,,,
CC[C@H](C)[C@H](NC(=O)[C@H](CO)NC(=O)[C@@H](NC(=O)[C@H](CCCCN)NC(=O)[C@@H](NC(=O)[C@@H](NC(=O)[C@H](Cc1ccc(O)cc1)NC(=O)[C@@H](NC(=O)[C@@H](CCSC)NC(=O)[C@@H](N)CC(C)C)C(C)C)C(C)C)C(C)C)[C@@H](C)O)C(=O)N[C@@H](CCCCN)C(=O)N[C@H](C(=O)N1CCC[C@H]1C(=O)N[C@@H](CO)C(=O)N[C@@H](CO)C(=O)N[C@@H](Cc1c[nH]cn1)C(=O)N[C@@H](CC(N)=O)C(=O)N[C@@H](CC(C)C)C(=O)N[C@@H](CCSC)C(=O)N[C@@H](CCCCN)C(=O)NCC(=O)NCC(=O)N[C@@H](CO)C(=O)N[C@H](C(=O)N[C@@H](CCCCN)C(=O)N[C@@H](CC(N)=O)C(=O)N[C@@H](Cc1c[nH]c2ccccc12)C(=O)N[C@@H](CO)C(=O)NCC(=O)N[C@@H](CC(N)=O)C(=O)O)[C@@H](C)O)[C@@H](C)CC [MHP1-DN3] (H-L[dM]VYVVKTSIKIPSSHNLMKGGSTKNWSGN-OH),,,lacked anti-inflammatory effects,no influence,
CC[C@H](C)[C@H](NC(=O)[C@H](CO)NC(=O)[C@@H](NC(=O)[C@H](CCCCN)NC(=O)[C@@H](NC(=O)[C@@H](NC(=O)[C@H](Cc1ccc(O)cc1)NC(=O)[C@@H](NC(=O)[C@H](CCSC)NC(=O)[C@H](CC(C)C)NC(C)=O)C(C)C)C(C)C)C(C)C)[C@@H](C)O)C(=O)N[C@@H](CCCCN)C(=O)N[C@H](C(=O)N1CCC[C@H]1C(=O)N[C@@H](CO)C(=O)N[C@@H](CO)C(=O)N[C@@H](Cc1c[nH]cn1)C(=O)N[C@@H](CC(N)=O)C(=O)N[C@@H](CC(C)C)C(=O)N[C@@H](CCSC)C(=O)N[C@@H](CCCCN)C(=O)NCC(=O)NCC(=O)N[C@@H](CO)C(=O)N[C@H](C(=O)N[C@@H](CCCCN)C(=O)N[C@@H](CC(N)=O)C(=O)N[C@@H](Cc1c[nH]c2ccccc12)C(=O)N[C@@H](CO)C(=O)NCC(=O)N[C@@H](CC(N)=O)C(=O)O)[C@@H](C)O)[C@@H](C)CC [MHP1-Ac] (Ac-LMVYVVKTSIKIPSSHNLMKGGSTKNWSGN-OH),more effective than MHP1,more effective than MHP1,,,"anti-inflammatory effects at 1 µg/ml ([1]; 1 µg/ml peptide): not seen; dose dependency of anti-inflammatory effects ([1]; 24 h, ELISA): Dose-dependent anti-inflammatory effects were observed; cytotoxicity (LDH assay) [3]: did not increase cytotoxicity; time post-injection until which peptide was detected in the brain ([4]; brain homogenate, last sampling 2 h): 2 h; time within which peptide was degraded in plasma ([4]; plasma): ≤ 20 min; sedimentation after incubation in 0.45% saline ([5]; 0.45% saline, 37 °C, 24 h, visual, concentration not given): experienced sedimentation; dissolution in water ([5]; water): easily dissolved in water"
CC[C@H](C)[C@H](NC(=O)[C@H](CO)NC(=O)[C@@H](NC(=O)[C@H](CCCCN)NC(=O)[C@@H](NC(=O)[C@@H](NC(=O)[C@@H](Cc1ccc(O)cc1)NC(=O)[C@@H](NC(=O)[C@H](CCSC)NC(=O)[C@@H](N)CC(C)C)C(C)C)C(C)C)C(C)C)[C@@H](C)O)C(=O)N[C@@H](CCCCN)C(=O)N[C@H](C(=O)N1CCC[C@H]1C(=O)N[C@@H](CO)C(=O)N[C@@H](CO)C(=O)N[C@@H](Cc1c[nH]cn1)C(=O)N[C@@H](CC(N)=O)C(=O)N[C@@H](CC(C)C)C(=O)N[C@@H](CCSC)C(=O)N[C@@H](CCCCN)C(=O)NCC(=O)NCC(=O)N[C@@H](CO)C(=O)N[C@H](C(=O)N[C@@H](CCCCN)C(=O)N[C@@H](CC(N)=O)C(=O)N[C@@H](Cc1c[nH]c2ccccc12)C(=O)N[C@@H](CO)C(=O)NCC(=O)N[C@@H](CC(N)=O)C(=O)O)[C@@H](C)O)[C@@H](C)CC [MHP1-DN2] (H-LMV[dY]VVKTSIKIPSSHNLMKGGSTKNWSGN-OH),,,lacked anti-inflammatory effects,augmented the expression of TNF-α,
CC[C@H](C)[C@H](NC(=O)[C@H](CO)NC(=O)[C@@H](NC(=O)[C@@H](CCCCN)NC(=O)[C@@H](NC(=O)[C@@H](NC(=O)[C@H](Cc1ccc(O)cc1)NC(=O)[C@@H](NC(=O)[C@H](CCSC)NC(=O)[C@@H](N)CC(C)C)C(C)C)C(C)C)C(C)C)[C@@H](C)O)C(=O)N[C@@H](CCCCN)C(=O)N[C@H](C(=O)N1CCC[C@H]1C(=O)N[C@@H](CO)C(=O)N[C@@H](CO)C(=O)N[C@@H](Cc1c[nH]cn1)C(=O)N[C@@H](CC(N)=O)C(=O)N[C@@H](CC(C)C)C(=O)N[C@@H](CCSC)C(=O)N[C@@H](CCCCN)C(=O)NCC(=O)NCC(=O)N[C@@H](CO)C(=O)N[C@H](C(=O)N[C@@H](CCCCN)C(=O)N[C@@H](CC(N)=O)C(=O)N[C@@H](Cc1c[nH]c2ccccc12)C(=O)N[C@@H](CO)C(=O)NCC(=O)N[C@@H](CC(N)=O)C(=O)O)[C@@H](C)O)[C@@H](C)CC [MHP1-DN1] (H-LMVYVV[dK]TSIKIPSSHNLMKGGSTKNWSGN-OH),,,lacked anti-inflammatory effects,augmented the expression of TNF-α,
